Where two headings read alike, the source gives them in different places. Each block holds one molecule with its values, some of them ahead of it.
Columns and labels:
EGFR-TK = EGFR-TK (Homo sapiens, UniProt P00533); assay: biochemical; conditions: 3 μM ATP
Protocol: All the following incubations were performed at room temperature and with constant shaking. […] The final volume for each well was 150 μl.
After removing the unbound m108, the plate was washed and PBS containing 5% milk (1% fat) was added for the blocking (25 minutes).
One aliquot of A431 cell lysate was thawed and added to the plate.
After 25 minutes, and without washing the plate, ATP/MnCl2 solution was added in each well. The final concentration was 3 μM ATP/5 mM MnCl2. In this step the temperature was kept at 26° C. and the plate was under constant shaking. The incubation with ATP/MnCl2 was for 5 minutes.
Then, to stop the phosphorylation reaction, EDTA was added (pH 8, final concentration in each well 20 mM) and after 1 minute all the plate was washed.
Afterward, polyclonal anti-phosphotyrosine serum (Sugen, Inc.) was added (dilution of antibody in TBST containing 5% milk). The incubation was for 45 minutes.

[1] = target: EGFR-TK autophosphorylation in intact A431 cells (Homo sapiens, UniProt P00533); assay: cell-based
Chain of EGFR-TK autophosphorylation in intact A431 cells (P00533 25-1210): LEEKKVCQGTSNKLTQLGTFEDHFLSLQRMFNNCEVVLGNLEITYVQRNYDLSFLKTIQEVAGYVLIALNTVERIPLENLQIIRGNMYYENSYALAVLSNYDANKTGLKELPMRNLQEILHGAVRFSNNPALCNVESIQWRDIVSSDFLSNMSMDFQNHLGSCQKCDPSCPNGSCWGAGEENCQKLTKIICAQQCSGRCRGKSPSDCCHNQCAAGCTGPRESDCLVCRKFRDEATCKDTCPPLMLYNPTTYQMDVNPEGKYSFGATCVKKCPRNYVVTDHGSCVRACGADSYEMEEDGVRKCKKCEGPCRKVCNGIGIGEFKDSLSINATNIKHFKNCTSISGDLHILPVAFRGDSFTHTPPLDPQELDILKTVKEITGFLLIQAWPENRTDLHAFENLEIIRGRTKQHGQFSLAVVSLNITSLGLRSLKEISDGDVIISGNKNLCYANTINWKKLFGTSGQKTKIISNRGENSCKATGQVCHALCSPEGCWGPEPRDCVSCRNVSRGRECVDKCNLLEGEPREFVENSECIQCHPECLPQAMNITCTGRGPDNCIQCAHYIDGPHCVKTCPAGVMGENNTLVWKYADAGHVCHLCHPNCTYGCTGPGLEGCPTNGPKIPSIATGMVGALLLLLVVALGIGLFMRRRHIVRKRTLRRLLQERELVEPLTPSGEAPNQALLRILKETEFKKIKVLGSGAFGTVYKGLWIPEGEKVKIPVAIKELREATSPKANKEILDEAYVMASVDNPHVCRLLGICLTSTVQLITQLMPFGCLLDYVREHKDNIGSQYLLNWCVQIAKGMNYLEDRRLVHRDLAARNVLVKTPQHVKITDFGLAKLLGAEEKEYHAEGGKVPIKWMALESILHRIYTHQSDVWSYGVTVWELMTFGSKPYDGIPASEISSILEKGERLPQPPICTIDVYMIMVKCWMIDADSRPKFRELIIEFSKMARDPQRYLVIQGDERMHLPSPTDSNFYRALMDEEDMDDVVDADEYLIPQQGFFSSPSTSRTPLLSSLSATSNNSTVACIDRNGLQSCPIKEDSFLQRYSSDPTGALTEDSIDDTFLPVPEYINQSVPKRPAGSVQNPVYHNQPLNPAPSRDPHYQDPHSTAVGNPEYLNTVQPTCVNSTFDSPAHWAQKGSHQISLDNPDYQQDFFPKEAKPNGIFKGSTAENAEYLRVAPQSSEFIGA
Protocol: Autophosphorylation Inhibition Experiments in Intact A431 Cells:
A431 cells (10^6) were seeded in 6-well plates and grown to 60–80% confluence in DMEM (high glucose) containing 10% fetal calf serum (FCS) and antibiotics at 37° C. The cells were then exposed to serum-free medium, at 37° C., for 18 hours.
Irreversibility assay: Variable concentrations of the inhibitor, ranging from 0.05 nM to 50 nM, were added to A431 cells for 2 hours incubation. The inhibitor was diluted in vehicle/DMSO and the final concentration of DMSO was 0.05% in each well). The medium was replaced thereafter with an inhibitor/FCS-free medium and the cells were left for either 2 or 8 hours, at 37° C. During the 8 hours period, the medium was changed three more times. After the post-incubation period, the cells were stimulated with EGF (20 ng/ml) for 5 minutes and then washed with PBS. Whole-cell lysates were obtained by scraping the cells into the well with 0.4 ml of Leammli buffer (10% glycerol, 3% sodium dodecyl sulfate, 5% b-mercaptoethanol, 50 mM Tris pH 6.8) that contained 0.001% bromophenol blue, and boiling for 5 minutes.
Western blots: Identical protein amounts from each lysate sample were loaded onto polyacrylamide gel (6% or 10%), separated by electrophoresis (Hoefer Pharmacia Diotech Inc., San Francisco, USA) and transferred to nitrocellulose membrane (power supply: EPS 500/400, Amersham Pharmacia Biotech; nitrocellulose extra blotting membranes: Sartorius A G, Goettingen, Germany). A standard high molecular weight solution was loaded as a reference. For visualization of molecular weight bands, the membrane was immersed in Ponceau reagent (0.05% Ponceau, 5% acetic acid) for a few minutes, and then washed twice with TTN (10 mM Tris pH 7.4, 0.2% TWEEN 20, 170 mM NaCl) and once with water. The membrane was blocked overnight in TTN containing 5% milk (1% fat) (blocking TTN) and incubated for 90 minutes with PY20 antiphosphotyrosine antibody (Santa Cruz Biotechnology Inc., Santa Cruz, USA) diluted 1:2,000 in blocking TTN. The membrane was then washed with TTN (3×5 minutes), incubated for 90 minutes with a horseradish peroxidase-conjugated secondary antibody (Goat anti-mouse IgG H+L, Jackson ImResearch Laboratories, Inc, diluted 1:10,000 in blocking TTN), and finally washed again with TTN (3×5 minutes). The membrane was incubated in a luminol-based solution (1 minute, 0.1 M Tris pH 8.5, 250 μM luminol, 400 μM p-cumaric acid, 0.033% H2O2) and visualized using chemiluminescent detection.
Quantification of the EGFR-P (protein) bands density obtained was performed using Adobe Photoshop 5.0ME and NIH image 1.16/ppc programs.

[2] = target: EGFR autophosphorylation in intact A431 cells (Homo sapiens, UniProt P00533); assay: EGFR autophosphorylation inhibition rate measurements in intact A431 cells; assay type: cell-based; conditions: 30 nM inhibitor
Chain of EGFR autophosphorylation in intact A431 cells (P00533 25-1210): as above
Protocol: A431 cells (10^6) were seeded in 6-well plates and grown to 60–80% confluence in DMEM (high glucose) containing 10% fetal calf serum (FCS) and antibiotics at 37° C.
After the incubation, the medium was replaced with an inhibitor/FCS-free medium, the cells were kept at 37° C. for either 1 or 8 hours, stimulated thereafter with EGF and lysated as described hereinabove. The protein determination assay was then performed once with n=1 for each time point of the 1 hour post-incubation set of cells left, and with n=2 (for each time point) for the 8 hours post-incubation set of cells.
The strips were then washed (3×15 minutes) with fading solution (20% MeOH, 7% acetic acid) and dried.
For visualization of molecular weight bands, the membrane was immersed in Ponceau reagent (0.05% Ponceau, 5% acetic acid) for a few minutes, and then washed twice with TTN (10 mM Tris pH 7.4, 0.2% TWEEN 20, 170 mM NaCl) and once with water. The membrane was blocked overnight in TTN containing 5% milk (1% fat) (blocking TTN) and incubated for 90 minutes with PY20 antiphosphotyrosine antibody (Santa Cruz Biotechnology Inc., Santa Cruz, USA) diluted 1:2,000 in blocking TTN.

A431 tumor [3] = assay: Positron Emission Tomography studies in tumor bearing nude rats; assay type: in vivo, rat; conditions: for bladder excretion (PET coronal views): FIG. 12
Protocol: (§1) WAG rnu/rnu male rats (300–400 grams) were injected s.c. in the left or right hind limb, or in the neck, with A431 cells (1×10^7 in 200 μl sterile PBS). Tumor growth was monitored every 2–3 days by calipers. One to two weeks after inoculation, the rats were ready to be used in the following in-vivo biodistribution, metabolic and PET studies. Tumor mass ranging between 2 and 3 grams were used in these experiments.
Positron Emission Tomography studies: Preliminary dynamic PET scans were performed on a Positron Corporation HZL/R scanner (intrinsic spatial resolution: in-plane 5.8 mm, axial 6.3 mm). Rats were anaesthetized with pentothal (85 mg/Kg) and placed supine on a flat polystyrene foam support with feet taped to the support, so as to minimize movements. […] The PET data were normalized for variations in detector sensitivity, and corrected for wobble, randoms, scatter and deadtime. Attenuation correction was applied using the measured transmission scan data. PET images of the Posicam system (Positron Corporation) were reconstructed by filtered back-projection using a Butterworth filter (cut-off 0.2 cycles/mm, order 10). […] These experiments were conducted with the same rats, two days after the first set of experiments.

[4] = Biological stability (metabolism) in blood, liver and tumor of rats; assay type: in vivo, rat
Protocol: as §1, with “experiments. Biological Stability: […] In general, control rats were injected with the radiolabeled compounds and sacrificed at several time points. […] Ether was then added and the samples were counted in a gamma-counter. Blood, homogenized liver and tumor samples were extracted and the extracted fractions were measured for activity in a gamma-counter, spotted onto TLC, and the radioactivity was detected with phosphor imaging plates.” for “experiments.”

A431 tumor [5] = assay: Biodistribution in tumor (A431) bearing rats; assay type: in vivo, rat; conditions: for tumor/blood ratios: data not shown; for course of tumor uptake with time / tumor uptake: tumor (A431) bearing rats
Protocol: as §1, with “experiments. Biodistribution: […] Animals were sacrificed at specific time points (between 0 and 1 hour) by means of CO2 asphyxiation. Blood and certain organs and tissues including tumors were collected or excised, counted in a gamma-counter and weighed. % ID/organ, % ID/gram of tissue and tissue/blood uptake ratios were calculated.” for “experiments.”

A431 cells = assay: Specific binding measurements in intact A431 cells; set-up: species or system human
Protocol: Specific Binding Measurements in Intact A431 Cells: […] After incubation, cells were harvested with a cell harvester (Brandel […], model […], Brandel, Gaithersburg, Md., USA) and were counted in a gamma-counter (1480 WizardTM 3''). The specific binding of the radiolabeled inhibitor was calculated by subtracting the radioactivity level of cells pre-incubated with the non-labeled inhibitor from the radioactivity level of cells pre-incubated with the vehicle only.

Chain of EGFR-TK (P00533 25-1210): as above

SMILES: C=CC(=O)Nc1ccc2ncnc(Nc3cc(Cl)c(Cl)cc3F)c2c1 [Compound 3, N-{4-[(3,4-dichloro-6-fluorophenyl)amino]quinazoline-6-yl}acrylamide]
- IC50 (EGFR-TK; IC50app of an exemplary dose-response autophosphorylation inhibition curve, single exemplary curve (FIG. 1 / FIG. 5), r2 0.995): 51 pM
- IC50 (EGFR-TK; apparent IC50 average (IC50app), EGFR-TK autophosphorylation, average of 4 independent dose-response curves (n=4), spread ±0.016): 42 pM
- inhibition at 0.0005 µM ([1]; A-431, read-out: inhibition of EGFR autophosphorylation, 0.5 nM inhibitor, 2 h incubation, 2 hours in inhibitor/FCS-free media): ~35%
- inhibition at 0.005 µM ([1]; A-431, read-out: inhibition of EGFR autophosphorylation, 5 nM inhibitor, 2 h incubation, 2 hours in inhibitor/FCS-free media): 40%
- inhibition at 0.05 µM ([1]; A-431, read-out: inhibition of EGFR autophosphorylation, 50 nM inhibitor, 2 h incubation, 2 hours in inhibitor/FCS-free media): ~100%
- inhibition at 0.05 µM ([1]; A-431, read-out: inhibition of EGFR autophosphorylation, 50 nM inhibitor, 2 h incubation, 8 hours post-incubation): ~97%
- inhibition of EGFR autophosphorylation ([2]; 9 minutes incubation time, 1 hour post-incubation (FIG. 4), compared with the 80% inhibition of FIG. 3): same effect
- inhibition at 0.03 µM ([2]; A-431, 10 minutes incubation time, 8 hours post-incubation (FIG. 3)): 80%

SMILES: OC[C@H]1O[C@@H](O)[C@H]([18F])[C@@H](O)[C@@H]1O [FDG, reference compound]
- bladder excretion (PET coronal views) (A431 tumor [3]): excreted in the bladder in great quantities

SMILES: C=CC(=O)Nc1ccc2ncnc(Nc3cc(Cl)c(Cl)cc3F)c2c1 [carbon-11 labeled Compound 3, carbon-11 labeled N-{4-[(3,4-dichloro-6-fluorophenyl)amino]quinazoline-6-yl}acrylamide]
- tracer remaining intact in blood ([4]; 15 minutes post injection): 20%
- metabolites in liver and blood (TLC) ([4]; 30 minutes post injection, tumor bearing rats): detected
- tracer remaining intact in blood ([4]; 45 minutes post injection): no tracer was remained
- tumor/blood ratios (A431 tumor [5]; 15 minutes post administration): 0.09 % ID/gram
- tumor/blood ratios (A431 tumor [5]; 30 minutes post administration): 0.05 % ID/gram
- course of tumor uptake with time (A431 tumor [5]): decreased with time

- bladder excretion (PET coronal views) (A431 tumor [3]): slower and minimal bladder excretion
- specific binding of radiolabeled inhibitor in tumor (A431 tumor [3]; PET, alone versus blocked with non-labeled compound): 50%
- decrease of liver activity uptake (A431 tumor [3]; during one hour scanning time): 25%
- course of activity uptake in the tumor (A431 tumor [3]; during the first one hour scan): remained constant
- course of intact tracer in blood with time ([4]; 15 to 45 minutes post injection): no substantial reduction with time
- tracer remaining intact in blood ([4]; 15 minutes post injection): 60%
- metabolites (TLC) ([4]; 60 minutes post injection, tumor bearing rats): no metabolites
- tumor uptake (A431 tumor [5]; 15 minutes post-administration): 0.25 % ID/gram
- tumor uptake (A431 tumor [5]; 30 minutes post-administration): 0.24 % ID/gram
- course of tumor uptake with time (A431 tumor [5]): remained constant
SMILES: CN(C)CC=CC(=O)Nc1ccc2ncnc(Nc3cc(Cl)c(Cl)cc3F)c2c1 [carbon-11 labeled Compound 4, carbon-11 labeled N-{4-[(3,4-dichloro-6-fluorophenyl)amino]quinazoline-6-yl}-4-(dimethylamino)-2-butenamide]
- PET visualization of the tumor (A431 tumor [3]; 250 μCi via jugular vein, dynamic scan): visualized throughout a 1-hour scan
- tumor uptake of tracer after pre-injection of non-labeled Compound 4 (A431 tumor [3]; non-labeled Compound 4 given 10 minutes before tracer, same rats 2 days later): blocked
- total activity uptake in tumor when administered alone as compared with uptake after pre-injecting non-labeled compound (A431 tumor [3]; time activity curves of the tumor region (FIG. 10)): doubled
- increase of specific binding as compared to carbon-11 labeled Compound 3 (A431 cells; A431 cells): 10%
- specific binding to A431 cells (A431 cells; carbon-11 labeled tracer, non-specific binding from cells pre-incubated with non-labeled inhibitor): 78%

— patent publication US7172749B2, “Radiolabeled irreversible inhibitors of epidermal growth factor receptor tyrosine kinase and their use in radioimaging and radiotherapy” (priority 2001, dated 2007)
